Legend:
Assay type in all cases: in vivo
MIA-induced OA rat model [1] = assay: Pain suppression (nociceptive pain threshold, dynamic plantar aesthesiometer) in MIA-induced OA rat model; settings: FIG. 1
Procedure: All animals were allowed to acclimatize for one week after introduction to the laboratory environment. On the day of the start of the experiment, monosodium iodoacetate (MIA, Sigma, Cat. No. 12512) was dissolved in saline for injection at a concentration of 30 mg/mL, and 50 μL of the solution was administered once on the day of the start of the experiment. The animals were divided into groups as follows. The animals were randomly distributed so that the average of each group was distributed as evenly as possible according to the pain threshold evaluation values ranked, so as to obtain the number specified in the “Constitution of Test Groups” table. Individual identification was done by writing numbers directly on the tails of the animals. Individual identification cards of different colors were attached to the housing boxes according to each dose. […]
The nociceptive pain threshold (g) was measured using a dynamic plantar aesthesiometer (Ugo Basile, 37400, Comerio, Italy), a device in which the force applied to the animal's paw gradually increases over a certain period of time. […] The results for the nociceptive pain threshold were calculated as paw withdrawal latency (sec) and paw withdrawal threshold (g).

[2] = tested on: knee joint tissue of MIA-OA rat model; assay: Histopathological analysis of knee joint tissue (Safranin O staining, OARSI and Mankin scores) in MIA-OA animal model
Procedure: All animals were allowed to acclimatize for one week after introduction to the laboratory environment. On the day of the start of the experiment, monosodium iodoacetate (MIA, Sigma, Cat. No. 12512) was dissolved in saline for injection at a concentration of 30 mg/mL, and 50 μL of the solution was administered once on the day of the start of the experiment. The animals were divided into groups as follows. The animals were randomly distributed so that the average of each group was distributed as evenly as possible according to the pain threshold evaluation values ranked, so as to obtain the number specified in the “Constitution of Test Groups” table. Individual identification was done by writing numbers directly on the tails of the animals. Individual identification cards of different colors were attached to the housing boxes according to each dose. An animal room usage record sheet containing the test number, animal room usage period, principal investigator name, subinvestigator name, emergency contact information, etc. was attached to the animal room entrance. The test groups consisted of WT, vehicle, 25 mg/kg Compound 2, and 50 mg/kg Compound 2, respectively, which were administered orally once a day for a total of 21 days starting from 3 days after MIA administration.
Histopathological analysis of knee joint tissue was performed using the same model as that in Experimental Example 1. For histopathological analysis, Safranin 0 staining was performed, and two evaluators scored the severity of osteoarthritis according to the following evaluation criteria. As the analysis criteria, OARSI and total Mankin scores were analyzed. The OARSI analysis criteria were scored as follows: 0: normal cartilage surface; 1: cartilage surface is normal but cell death is found; 2: disruption of the cartilage surface and fibrosis of the surface layer; 3: splitting along the longitudinal axis of cartilage; 4: damage and infiltration to the middle part of cartilage; 5: exposure of stromal bone area; and 6: complete cartilage damage and formation of osteophytes. The total Mankin score analysis criteria were analyzed for four items: structure (0-6), cell (0-3), Safranin 0 (0-4), and tidemark (0-1). A higher score for each item indicates more damage to chondrocytes cells and structure.

MCP-1 = assay: Immunohistochemical analysis of knee joint tissue in MIA-OA animal model: MCP-1; settings: MIA-OA rat; immunohistochemistry; FIG. 6
Procedure: (§1) All animals were allowed to acclimatize for one week after introduction to the laboratory environment. On the day of the start of the experiment, monosodium iodoacetate (MIA, Sigma, Cat. No. 12512) was dissolved in saline for injection at a concentration of 30 mg/mL, and 50 μL of the solution was administered once on the day of the start of the experiment. The animals were divided into groups as follows. The animals were randomly distributed so that the average of each group was distributed as evenly as possible according to the pain threshold evaluation values ranked, so as to obtain the number specified in the “Constitution of Test Groups” table. Individual identification was done by writing numbers directly on the tails of the animals. Individual identification cards of different colors were attached to the housing boxes according to each dose. An animal room usage record sheet containing the test number, animal room usage period, principal investigator name, subinvestigator name, emergency contact information, etc. was attached to the animal room entrance. […]
(§2) The histopathological analysis of knee joint tissue was performed using the same model as that in Experimental Example 1. […] Then, the Dab-positive area expressing each cytokine in the synovium was extracted using ImageJ software (Wayne Rasband, NIH, USA) and expressed as a percentage relative to the total nuclear area.

MIA-induced OA rat model [3] = assay: Weight bearing (incapacitance meter) in MIA-induced OA rat model; settings: FIG. 2
Procedure: All animals were allowed to acclimatize for one week after introduction to the laboratory environment. On the day of the start of the experiment, monosodium iodoacetate (MIA, Sigma, Cat. No. 12512) was dissolved in saline for injection at a concentration of 30 mg/mL, and 50 μL of the solution was administered once on the day of the start of the experiment. The animals were divided into groups as follows. The animals were randomly distributed so that the average of each group was distributed as evenly as possible according to the pain threshold evaluation values ranked, so as to obtain the number specified in the “Constitution of Test Groups” table. Individual identification was done by writing numbers directly on the tails of the animals. […]
Weight bearing was measured using the same model as that in Experimental Example 1. […] The weight bearing of each hind paw was measured using an incapacitance meter (Model 600, IITC, USA), a device for measuring weight bearing. […]
When each animal was correctly positioned in the holder, the machine was operated, the measurement time was set to 5 seconds, and a total of two measurements were taken and averaged to determine the weight bearing (g) of each paw. […] The results of the weight-bearing measurement test were converted into weight bearing ratio using the following calculation formula and analyzed.

RIPK3 = assay: Immunohistochemical analysis of knee joint tissue in MIA-OA animal model: RIPK3; settings: MIA-OA rat; immunohistochemistry; FIG. 8
Procedure: as §1, §2

MMP3 = assay: Immunohistochemical analysis of knee joint tissue in MIA-OA animal model: MMP3; settings: MIA-OA rat; immunohistochemistry; FIG. 7
Procedure: as §1, §2

IL-6 = assay: Immunohistochemical analysis of knee joint tissue in MIA-OA animal model: IL-6; settings: MIA-OA rat; immunohistochemistry; FIG. 5
Procedure: as §1, §2

[4] = oral once a day, 21 days, FIG. 4

Compound: CCOc1ccc(C2COc3c(ccc4c3CCC(C)(C)O4)C2)c(O)c1 (centres unmarked) [Compound 2]
- pain caused by cartilage damage (nociceptive pain threshold) (MIA-induced OA rat model [1]; 25 mg/kg and 50 mg/kg orally once a day for 21 days from 3 days after MIA): gradually reduced
- pain suppression efficacy compared with positive control celecoxib (MIA-induced OA rat model [1]; oral once a day, 21 days): efficacy equivalent to that of the positive control, celecoxib
- histopathology score efficacy compared with positive control celecoxib ([2]; OARSI and Mankin scores, FIG. 4): efficacy equivalent to that of celecoxib
- Safranin 0 staining of the cartilage tissue ([2]; oral once a day, 21 days, FIG. 3): improved
- Mankin score (severity of osteoarthritis) [2, 4]: reduced
- ORASI score (severity of osteoarthritis) [2, 4]: reduced
- MCP-1 in knee joint tissue (Dab-positive area) (MCP-1): inhibited
- weight bearing following cartilage damage (MIA-induced OA rat model [3]; 25 mg/kg and 50 mg/kg orally once a day for 21 days): reduced
- weight bearing efficacy compared with positive control celecoxib (MIA-induced OA rat model [3]; oral once a day, 21 days): efficacy equivalent to that of celecoxib
- RIPK3 in knee joint tissue (Dab-positive area) (RIPK3): inhibited
- RIPK3 inhibition efficacy compared with positive control celecoxib (RIPK3): better efficacy than celecoxib
- MMP3 in knee joint tissue (Dab-positive area) (MMP3): reduced
- MMP3 reduction efficacy compared with positive control celecoxib (MMP3): better efficacy than celecoxib
- IL-6 in knee joint tissue (Dab-positive area) (IL-6): inhibited

— patent US20260216123A1, “PHARMACEUTICAL COMPOSITION FOR PREVENTING OR TREATING DEGENERATIVE OSTEOARTHRITIS” (GLACEUM INC., priority 2023, published 2026)
